Converted amounts (≈) assume the structure as drawn.
Legend:
Format in all cases: cell-based
[1] = test system: Streptococcus mutans; experiment: Streptococcus mutans growth inhibition, colony count on blood agar plate vs control; conditions: overnight culture 37° C, colony count vs negative control, read-out: IC50 against Streptococcus mutans
Method: (§1) The inventor verified the test by dissolving 1 mg of omega-3 fatty acids (EPA, DHA, and ALA) and omega-6 fatty acids (ARA, GLA), omega-3 fatty acid methyl esters (EPA-ME, DHA-ME, ALA-ME), and omega-3 fatty acid ethyl esters (EPA-EE, DHA-EE, ALA-EE) in 1000 μl ethanol solution; took 1 (final concentration 1 μg/ml) and 5 μl (final concentration 5 μg/ml) solution by adding 100 μl of Streptococcus mutans in the culture medium cultured overnight at 37° C. After the overnight culture, the medium was diluted 1:10000 times, 5 μl of the diluted culture was applied to blood agar plate and cultured overnight. Calculated the number of colonies on the plates and compared with the control group to obtain the percentage of inhibition.

[2] = test system: Candida albicans; experiment: Candida albicans growth inhibition; conditions: final concentration 25 μg/ml
Method: [The procedure below names another organism; the source lists this organism under the same test.] as §1

[3] = test system: Actinobacillus actinomycetemcomitans; experiment: Actinobacillus actinomycetemcomitans growth inhibition; conditions: Aggregatibacter actinomycetemcomitans; final concentration 15 μg/ml
Method: [The procedure below names another organism; the source lists this organism under the same test.] as §1

Row | IC50 [1] | SMILES | inhibition at 25 µg/mL [2] | inhibition at 15 µg/mL [3]
1 | ~5 µg/mL (≈ 18 µM) | CCCCC/C=C\C/C=C\C/C=C\CCCCC(=O)O [GLA, γ-linolenic acid] |  | 
2 |  | CC/C=C\C/C=C\C/C=C\C/C=C\C/C=C\C/C=C\CCC(=O)O [DHA, docosahexaenoic acid] | 50% | 50%
3 |  | CC/C=C\C/C=C\C/C=C\CCCCCCCC(=O)O [ALA, α-linolenic acid] | 50% | 50%
4 |  | CC/C=C\C/C=C\C/C=C\C/C=C\C/C=C\CCCC(=O)O [EPA, eicosapentaenoic acid] | 50% | 50%
5 | ~5 µg/mL (≈ 16.4 µM) | CCCCC/C=C\C/C=C\C/C=C\C/C=C\CCCC(=O)O [ARA, arachidonic acid] | 50% | 50%
